Where two headings read alike, the source gives them in different places.
Experiments:
[1] = target: bovine heart mitochondrial membranes (complex I) (Bos taurus, UniProt P03887+P03898+P17694+P42026); test: NADH:O2 oxidoreduction by bovine heart mitochondrial membranes (complexes I-III-IV); format: biochemical
Method: Complex I and mitochondrial membranes were prepared from Bos taurus (bovine) heart. Intact mitochondria were isolated from rat liver and mouse heart and liver. Membranes were prepared from mouse heart mitochondria by 5 s bursts of sonication at 4 °C and collected by centrifugation (75,000 × g, 1 h).
Assays were performed at 32 °C in a SpectraMax 96-well plate reader. NADH:decylubiquinone oxidoreduction by complex I at 0.5 μg mL^−1 was measured in 20 mM Tris-HCl (pH 7.2), 0.15 % soy bean asolectin (Avanti Polar Lipids), and 0.15 % 3-((3-cholamidopropyl)dimethylammonium)-1-propanesulfonate (CHAPS, Merck Chemicals Ltd), with 200 μM decylubiquinone and 200 μM NADH, and monitored using ε340–380(NADH) = 4.81 mM^−1 cm^−1 [23]. Catalysis was initiated by addition of NADH and maximal rates determined by linear regression. NADH:O2 oxidoreduction by membranes was measured similarly but using 5 μg mL^−1 membranes in 10 mM Tris-HCl (pH 7.4) and 250 mM sucrose using 200 μM NADH and supplemented with 0.15 mM horse heart cytochrome c (Sigma-Aldrich Ltd.). Succinate:O2 oxidoreduction was measured using 40 μg mL^−1 membranes in 5 mM succinate in 10 mM Tris-HCl (pH 7.4) as described previously. Control experiments included NaCl (to match the ionic strength) or DMSO, as appropriate.
Experimental values are reported as mean averages ± standard deviation (SD) of technical replicates for large sample sizes and mean averages ± standard error of the mean (SEM) of technical replicates for small sample sizes. Data were analyzed by the unpaired two-tailed Student’s t test. IC50 values were determined using the standard dose-effect relationship (activity (%) = 100 × IC50 / (IC50 + [inhibitor]^m) with the Hill Slope (m) set to unity for purified complex I) and are reported with 95 % confidence intervals.

[2] = system: HepG2 cells; test: Rotenone-sensitive oxygen consumption rate in intact HepG2 cells; format: cell-based, human; settings: for rotenone sensitive OCR after 6 hours of biguanide exposure, % control, average / rotenone sensitive OCR after 6 hours of biguanide exposure, average: HEPG2 cells, biguanide at IC50/10; for rotenone sensitive OCR after 6 hours of biguanide exposure, average: OCR normalized to OCR immediately prior to biguanide addition; for inhibition of rotenone-sensitive respiration (in words): intact HepG2 cells, biguanide at IC50/10, monitored for 6 h
Method: 143B (CRL-8303 from ATCC), HepG2 (85011430 from The Health Protection Agency), and MDBK (CCL-22 from ATCC) cells were grown on Dulbecco’s modified Eagle’s medium (DMEM) supplemented with 10 % fetal bovine serum (FBS, Thermo Fisher Scientific) at 37 °C in 5 % CO2. All cells were confirmed as negative for mycoplasma.
Oxygen consumption rates (OCRs) were measured using a Seahorse XF96 extracellular flux analyzer at 37 °C. For intact cell measurements, 1.4 × 10^4 143B, HepG2, or MDBK cells were plated (per well) in DMEM containing 10 % FBS into Seahorse Bioscience Inc. XF96 plates and incubated for ~12 h at 37 °C in 5 % CO2. Then, the medium was exchanged for assay buffer containing DMEM, 4.5 g L^−1 glucose, 1 mM pyruvate, 32 mM NaCl, 2 mM GlutaMAX, 15 mg L^−1 phenol red, and 20 mM HEPES (pH 7.4 at 37 °C) and the cells placed in a CO2-free incubator at 37 °C for 30 min. Basal oxygen consumption rates were established before the addition of biguanides at one-tenth of their IC50 (IC50/10), and followed for ~ 6 h before the addition of rotenone (2 μM).
Rotenone-sensitive OCRs were calculated by subtracting the rotenone-insensitive rates (determined at the end of the experiment). OCRs were normalized by dividing by the OCR recorded immediately prior to the addition of biguanide. For rate of uptake calculations, the OCRs at time points after biguanide addition were divided by the OCRs at the same time points in control experiments. Data from wells with failed port injections were excluded from the analyses. The respiratory control ratio (RCR) values (state III versus state IV respiration) were ~11 and ~6 for permeabilized MDBK and 143B cells, respectively.

[3] = system: acetyl-coA carboxylase (phospho-Ser79); test: AMPK activation, western blot of phospho-acetyl-coA carboxylase in MDBK cells; format: cell-based, Bos taurus; settings: for ACC, average normalised to control: Averages of experiments 1-3, 18 hours; for p-ACC: band intensity
Method: MDBK cells were seeded at 1 × 10^6 cells per 6 cm dish in DMEM containing 10 % FBS. […] After 18 h cells were harvested by a rapid lysis procedure: cells were rinsed with PBS, then lysed using ice-cold buffer containing 50 mM HEPES, 1 mM EDTA, 10 % glycerol, 50 mM NaF, 5 mM sodium pyrophosphate, 1 % Triton-X100, 1 mM dithiothreitol (DTT), and a protease inhibitor cocktail (Roche). The cell lysate was centrifuged at 14,000 × g for 20 min at 4 °C and the protein concentration of the supernatant determined by bicinchoninic acid assay. The lysate was analyzed using Novex 3–12 % bis-Tris gels run in 3-(N-morpholino)propanesulfonic acid (MOPS) buffer (20 μg of protein per lane) followed by transfer to low fluorescence polyvinylidene fluoride membranes by wet transfer. Primary rabbit antibodies for AMPK-β (57C12), AMPK-α (phospho-Thr172) (40H9), and acetyl-coA carboxylase (phospho-Ser79) (Cell Signaling Technology) were incubated overnight with the membrane (1:1000 dilution) in Odyssey blocking buffer at 4 °C. A fluorescent secondary antibody was used (IRDYE800CW from LI-COR Biosciences, 1:20,000 dilution) with a LI-COR Odyssey imaging system.

[4] = bovine heart mitochondrial membranes; inhibitor 0.05 mM; read-out: average % (rate, % of no-inhibitor control)
[5] = bovine heart mitochondrial membranes; inhibitor 0.12 mM; read-out: average % (rate, % of no-inhibitor control)
[6] = bovine heart mitochondrial membranes; inhibitor 0.25 mM; read-out: average % (rate, % of no-inhibitor control)
[7] = bovine heart mitochondrial membranes; inhibitor 0.50 mM; read-out: average % (rate, % of no-inhibitor control)
[8] = log of concentration in mM; sample given as Bovine heart mitochondrial membranes; Prism variable slope fit, Bottom 0, Top 100
[9] = sample given as Bovine heart mitochondrial membranes; Prism log(inhibitor) vs. response variable slope fit (four parameters), Bottom 0, Top 100; read-out: IC50 (best fit value)
[10] = sample given as Bovine heart mitochondrial membranes; Prism variable slope fit, Bottom 0, Top 100

Chain of bovine heart mitochondrial membranes (complex I) (P42026 38-216): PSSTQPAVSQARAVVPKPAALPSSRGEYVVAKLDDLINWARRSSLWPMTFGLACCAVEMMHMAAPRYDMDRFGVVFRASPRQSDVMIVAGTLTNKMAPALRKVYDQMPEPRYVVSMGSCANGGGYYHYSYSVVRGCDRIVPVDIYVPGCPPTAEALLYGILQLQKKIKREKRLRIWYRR
Chain of bovine heart mitochondrial membranes (complex I) (P17694 34-463): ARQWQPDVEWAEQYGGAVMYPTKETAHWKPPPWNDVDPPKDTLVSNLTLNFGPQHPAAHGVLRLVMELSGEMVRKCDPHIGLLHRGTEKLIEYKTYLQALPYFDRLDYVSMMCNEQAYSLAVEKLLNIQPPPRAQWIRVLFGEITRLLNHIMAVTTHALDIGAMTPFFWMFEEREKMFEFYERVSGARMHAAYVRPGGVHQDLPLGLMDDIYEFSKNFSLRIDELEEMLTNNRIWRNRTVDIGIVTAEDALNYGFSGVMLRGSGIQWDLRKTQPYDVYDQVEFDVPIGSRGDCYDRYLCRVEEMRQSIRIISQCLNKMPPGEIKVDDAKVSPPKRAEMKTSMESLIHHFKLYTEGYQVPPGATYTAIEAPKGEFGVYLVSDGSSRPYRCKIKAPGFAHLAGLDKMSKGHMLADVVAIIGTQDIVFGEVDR
Chain of bovine heart mitochondrial membranes (complex I) (P03887 whole entry): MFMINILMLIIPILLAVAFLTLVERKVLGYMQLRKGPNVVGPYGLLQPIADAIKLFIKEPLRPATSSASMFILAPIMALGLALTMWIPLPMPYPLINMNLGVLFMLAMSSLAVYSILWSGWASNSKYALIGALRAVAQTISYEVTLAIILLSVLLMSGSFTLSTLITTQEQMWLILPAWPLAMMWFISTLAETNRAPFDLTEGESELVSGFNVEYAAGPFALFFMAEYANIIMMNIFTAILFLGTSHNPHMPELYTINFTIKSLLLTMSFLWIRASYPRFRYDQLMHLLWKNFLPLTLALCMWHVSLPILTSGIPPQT
Chain of bovine heart mitochondrial membranes (complex I) (P03898 whole entry): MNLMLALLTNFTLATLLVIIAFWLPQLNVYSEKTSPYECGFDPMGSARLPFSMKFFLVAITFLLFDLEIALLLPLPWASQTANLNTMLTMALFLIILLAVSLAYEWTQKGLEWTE

| SMILES | remaining activity at 50 µM [1, 4] | remaining activity at 120 µM [1, 5] | remaining activity at 250 µM [1, 6] | remaining activity at 500 µM [1, 7] | LogIC50 (best fit value) [1, 8] | IC50 [1, 9] | HillSlope (best fit value) [1, 10] | rotenone sensitive OCR after 6 hours of biguanide exposure, % control, average [2] | rotenone sensitive OCR after 6 hours of biguanide exposure, average [2] | inhibition of rotenone-sensitive respiration (in words) [2] | ACC, average normalised to control [3] | p-ACC / AMPK beta ([3]; Experiment 1, 18 hours) | p-ACC / AMPK beta normalised to control ([3]; Experiment 1, 18 hours) | p-ACC ([3]; Experiment 1, 18 hours) | p-ACC / AMPK beta ([3]; Experiment 2, 18 hours) | p-ACC / AMPK beta normalised to control ([3]; Experiment 2, 18 hours) | p-ACC ([3]; Experiment 2, 18 hours) | p-ACC / AMPK beta ([3]; Experiment 3, 18 hours) | p-ACC / AMPK beta normalised to control ([3]; Experiment 3, 18 hours) | p-ACC ([3]; Experiment 3, 18 hours) | also measured |
| --- | --- | --- | --- | --- | --- | --- | --- | --- | --- | --- | --- | --- | --- | --- | --- | --- | --- | --- | --- | --- | --- |
| NC(N)=NC(N)=NCCc1ccc(Cl)cc1 [compound 1, 2-[2-(4-chlorophenyl)ethyl]-1-(diaminomethylidene)guanidine] | 77.5% | 66.8% | 57.4% | 44.1% | -0.4001 | 398 µM | -0.6555 | 4.45 % control | 4.59 | inhibit respiration | 9.49 | 1.85 | 9.53 | 848 | 2.03 | 12.57 | 727 | 1.89 | 6.35 | 483 | remaining activity at 25 µM ([1]; bovine heart mitochondrial membranes; inhibitor 0.025 mM; read-out: average % (rate, % of no-inhibitor control)): 91.4%; remaining activity at 1000 µM ([1]; bovine heart mitochondrial membranes; inhibitor 1.00 mM; read-out: average % (rate, % of no-inhibitor control)): 35.1%; remaining activity at 2000 µM ([1]; bovine heart mitochondrial membranes; inhibitor 2.00 mM; read-out: average % (rate, % of no-inhibitor control)): 28.9% |
| N=C(N)NC(N)=Nc1ccccc1 [compound 2, phenyl biguanide] | – | – | – | – | -0.3757 | – | -0.7595 | 91.28 % control | 94.14 | do not | 1.20 | 0.25 | 1.30 | 118 | 0.22 | 1.36 | 75.8 | 0.28 | 0.93 | 59.9 | IC50 ([1]; read-out: IC50 (best fit value); sample given as Bovine heart mitochondrial membranes; Prism log(inhibitor) vs. response variable slope fit (four parameters), Bottom 0, Top 100): 421 µM |
| NC(N)=NC(N)=NCc1ccccc1 [compound 3, 2-benzyl-1-(diaminomethylidene)guanidine] | 88.7% | 76.2% | 69.2% | 55.6% | -0.01339 | 970 µM | -0.5756 | 1.26 % control | 1.29 | inhibit respiration | 12.79 | 2.45 | 12.63 | 1150 | 2.31 | 14.32 | 699 | 3.41 | 11.43 | 770 | remaining activity at 1250 µM ([1]; bovine heart mitochondrial membranes; inhibitor 1.25 mM; read-out: average % (rate, % of no-inhibitor control)): 44.4%; remaining activity at 2500 µM ([1]; bovine heart mitochondrial membranes; inhibitor 2.50 mM; read-out: average % (rate, % of no-inhibitor control)): 37.2%; remaining activity at 5000 µM ([1]; bovine heart mitochondrial membranes; inhibitor 5.00 mM; read-out: average % (rate, % of no-inhibitor control)): 31.2% |
| CC(C)N=C(N)N=C(N)N [compound 4, 1-(diaminomethylidene)-2-(propan-2-yl)guanidine] | – | – | – | – | 1.46 | 28800 µM | -1.156 | 0.42 % control | 0.43 | inhibit respiration | 13.65 | 2.64 | 13.60 | 1170 | 2.65 | 16.42 | 693 | 3.25 | 10.92 | 641 | remaining activity at 620 µM ([1]; bovine heart mitochondrial membranes; inhibitor 0.62 mM; read-out: average % (rate, % of no-inhibitor control)): 96.7%; remaining activity at 1560 µM ([1]; bovine heart mitochondrial membranes; inhibitor 1.56 mM; read-out: average % (rate, % of no-inhibitor control)): 95.7%; remaining activity at 3120 µM ([1]; bovine heart mitochondrial membranes; inhibitor 3.12 mM; read-out: average % (rate, % of no-inhibitor control)): 92.6%; remaining activity at 6250 µM ([1]; bovine heart mitochondrial membranes; inhibitor 6.25 mM; read-out: average % (rate, % of no-inhibitor control)): 84.6%; remaining activity at 12500 µM ([1]; bovine heart mitochondrial membranes; inhibitor 12.50 mM; read-out: average % (rate, % of no-inhibitor control)): 72.6%; remaining activity at 25000 µM ([1]; bovine heart mitochondrial membranes; inhibitor 25.00 mM; read-out: average % (rate, % of no-inhibitor control)): 56.6%; remaining activity at 50000 µM ([1]; bovine heart mitochondrial membranes; inhibitor 50.00 mM; read-out: average % (rate, % of no-inhibitor control)): 32.5%; estimated rate of uptake into mitochondria ([2]; HepG2 cells, 3 mM in the extracellular medium): > 1.5 mM/min |
| [H]/N=C(/N)N/C(=N/[H])NCCc1ccccc1 [phenformin, reference compound] | – | – | – | – | – | – | – | 1.73 % control | 1.79 | – | 7.37 | 1.27 | 6.56 | 586 | 1.60 | 9.93 | 598 | 1.68 | 5.62 | 404 | – |

From PMC4977651, “Molecular features of biguanides required for targeting of mitochondrial respiratory complex I and activation of AMP-kinase” (BMC Biology, 2016)
